{"source": "a melting point compilation (Tetko et al.; mined from patent text by program, amines drawn as free bases though some values may be those of a salt)"}
{"units": {"melting point": "°C"}}
{"smiles": "COc1cc(OC)cc(C2=N[C@H]3CCN(C)C[C@H]3c3ccccc32)c1", "note": "(relative stereo)", "melting point": "123 to 124"}
{"smiles": "OCc1ccnc2cc(Cl)ccc12", "melting point": 160}
{"smiles": "CC1Oc2c(cc(CN3CCN(c4ccc(C(=O)NC5CC5)cc4)CC3)cc2-c2ccccc2)NC1=O", "note": "(stereo not drawn)", "melting point": "217 to 224"}
{"smiles": "CCCOC(=O)C1=C(C)NC(C)=C(C(=O)OCC2CC2)C1c1cccc([N+](=O)[O-])c1", "note": "(stereo not drawn)", "melting point": "167 to 168"}
{"smiles": "ON=Cc1c[nH]c2cccc(OCc3ccccc3)c12", "melting point": "206 to 210"}
{"smiles": "c1csc(CNCc2ccc(-c3cc4ncnc(Nc5ccc6[nH]ccc6c5)c4s3)cc2)c1", "melting point": "111 to 121"}
{"smiles": "Fc1ccc(-c2cc(-c3ccccc3)c(-c3ccccc3)s2)cc1", "melting point": "108 to 110"}
{"smiles": "CC(=O)/C=C(\\C)c1ccc(C2CCCCC2)cc1", "melting point": "49 to 50"}
{"smiles": "CCS(=O)(=O)C(NC(C)=O)C(=O)NCc1ccccc1", "note": "(stereo not drawn)", "melting point": "161 to 163"}
{"smiles": "O=C1Nc2ccc(F)c(F)c2C1c1ncnc2nn(C3CCCC3)cc12", "note": "(stereo not drawn)", "melting point": "280 to 284"}
{"smiles": "CC(C)(C)OC(=O)C1(O/N=C(\\C(=O)O)c2csc(NC(c3ccccc3)(c3ccccc3)c3ccccc3)n2)CC1", "melting point": 157}
{"smiles": "CCOC(=O)c1[nH]c(C)c(C(C)CC)c1C", "note": "(stereo not drawn)", "melting point": "102 to 104"}
{"smiles": "COC(=O)NC(C(=O)O)c1ccc([N+](=O)[O-])cc1", "note": "(stereo not drawn)", "melting point": 152}
{"smiles": "COC(=O)c1ccc2cc(CO)ccc2c1", "melting point": "120 to 121"}
{"smiles": "Cn1nc(-c2ccc(F)cc2)c(-c2ccc(S(C)(=O)=O)cc2)cc1=O", "melting point": "181 to 182"}
{"smiles": "O=C(O)c1ccc(S(=O)(=O)C(Br)(Br)Br)cc1", "melting point": "> 305"}
{"smiles": "CNc1nc(-c2ccccc2)c(-c2nc3ccccc3c(=O)n2-c2ccc(C(C)=O)cc2)s1", "melting point": "239 to 240"}
{"smiles": "CC(C)Sc1cn(C)cc(-c2cccc(C(F)(F)F)c2)c1=O", "melting point": "93 to 94"}
{"smiles": "CCOC(=O)c1c(OCc2ccccc2)cc(C(F)(F)F)nc1C(F)(F)F", "melting point": "56 to 58.5"}
{"smiles": "Fc1cccc(F)c1C1=NC(c2ccc(OCc3ccc(Cl)cc3Cl)cc2)CO1", "note": "(stereo not drawn)", "melting point": 104}
{"smiles": "Cc1ccc(S(=O)(=O)n2cc(CCN(Cc3ccccc3)Cc3ccccc3)c3ccccc32)cc1", "melting point": "116 to 118"}
{"smiles": "CCCOc1ccc(-c2ccc(-c3ccccc3Cl)n2Cc2ccc(OCCO)c(N)n2)cc1", "melting point": "89 to 92"}
{"smiles": "CCOC(=O)c1cn(-c2nc(NC(C)(C)C)c(F)cc2F)c2c(Br)c(F)c(F)cc2c1=O", "melting point": "198 to 203"}
{"smiles": "CCCNC(=O)C(C)=Cc1ccc2c(c1)c(Cc1ccc(C(=O)NS(=O)(=O)c3ccccc3C)cc1OC)cn2C", "melting point": "189 to 191"}
{"smiles": "CC(=O)Nc1ccc(CCCOCCCCCCNCC(O)c2cc(Cl)c(N)c(Cl)c2)nc1", "note": "(stereo not drawn)", "melting point": "66 to 67"}
{"smiles": "CCOc1ccc(-c2nc(C=Cc3ccccc3)cs2)cc1OCC", "melting point": "94 to 95"}
{"smiles": "O=c1ccn(-c2ccccc2)nc1-c1ccnn1-c1ccccc1", "melting point": "179 to 180"}
{"smiles": "N#Cc1cccc(C(Cl)(Cl)Cl)c1Cl", "melting point": "106 to 107"}
{"smiles": "CCN1CC(=O)N(CC)c2cc(Nc3ncc(Cl)c(Nc4ccccc4S(=O)(=O)N(C)C)n3)c(OC)cc2C1", "melting point": "195 to 197"}
{"smiles": "CCCc1c(COc2ccc(C(=O)Cc3nnn[nH]3)cc2)ccc(C(C)=O)c1O", "melting point": "207 to 209"}
{"smiles": "C=C(C)C(=O)NCCCNC(=O)OC(C)(C)C", "melting point": 85.8}
{"smiles": "CC[C@@H](C=O)NC(=O)OC(C)(C)C", "melting point": "39 to 43"}
{"smiles": "CCOC(=O)Nc1ccc2c(c1)CC[C@H](CCC(F)(F)F)O2", "melting point": 88}
{"smiles": "O=C(O)c1ccc(-c2nc(NCc3ccc4c(c3)OCO4)c3cc([N+](=O)[O-])sc3n2)cc1", "melting point": 172}
{"smiles": "COc1ccccc1-c1ccc(-c2ccc(C(=O)O)cc2)cc1-c1ccc2c(c1)C(C)(C)CCC2(C)C", "melting point": "133 to 136"}
{"smiles": "N#Cc1cc(Br)c(OC(=O)OCI)c(Br)c1", "melting point": "103 to 105"}
{"smiles": "Cn1ncc2cc(NC(=O)Nc3ccc(C(F)(F)F)cc3)ccc21", "melting point": "252 to 254"}
{"smiles": "CC1(C)OCCCOc2c[nH]cc2OCCCOC1(C)C", "melting point": "48 to 50"}
{"smiles": "COc1cccc(NC(=O)/C=C(\\C)c2cc3cccc(OCCCC(=O)O)c3o2)c1", "melting point": "156 to 158"}
{"smiles": "O=C(O)c1ncoc1-c1ccoc1", "melting point": "189 to 191"}
{"smiles": "Cc1c(C(=O)C23CC4CC(CC(C4)C2)C3)oc2cc(F)ccc12", "melting point": "107 to 109"}
{"smiles": "CCN(CC)CCNC(=O)c1cccc2c(=O)c(C)c(-c3ccc(OC)cc3)oc12", "melting point": "126 to 127"}
{"smiles": "C[C@@H]1Cc2ccsc2[C@H](c2ccccc2)N1CCNS(=O)(=O)c1ccc(N)cc1", "note": "(relative stereo)", "melting point": "184 to 186"}
{"smiles": "COc1cc(-c2ccccc2C)ccc1C(=O)N1Cc2ccc(C(=O)O)n2Cc2ccccc21", "melting point": "144 to 146"}
{"smiles": "CC(C)(C)OC(=O)Nc1ccc(-c2ccccc2F)cc1N", "melting point": "100 to 103"}
{"smiles": "CCOC(=O)c1cnoc1-c1ccc(Cl)cc1", "melting point": "58 to 60"}
{"smiles": "COC1CCN2C(=O)c3cccc(N)c3C2C1", "note": "(stereo not drawn)", "melting point": "60 to 62"}
{"smiles": "Oc1cc2c3ccc(O)c(O)c3n(Cc3ccccc3)c2cc1O", "melting point": "241 to 246"}
{"smiles": "CC(C)(C)COc1c(NCCCBr)c(=O)c1=O", "melting point": "111 to 113"}
{"smiles": "O=[N+]([O-])c1ccc(-n2ccnc2)cc1", "melting point": 150}
{"smiles": "OC1c2cc(OCc3ccc4cc(F)ccc4n3)ccc2OCC1Cc1cncnc1", "note": "(stereo not drawn)", "melting point": "188 to 191"}
{"smiles": "O=C1NC(Cc2c[nH]c3ccccc23)C(=O)N1CCCN1CCOCC1", "note": "(stereo not drawn)", "melting point": "158 to 160"}
{"smiles": "CC1(C)Oc2ccc([N+](=O)[O-])cc2C2OC21", "note": "(stereo not drawn)", "melting point": "91 to 93"}
{"smiles": "CCCc1nsc(Oc2cccc(NC(=O)OC(C)C)c2)n1", "melting point": 64}
{"smiles": "CCC[C@H]1CC[C@H](CCCOc2ccc(C(=O)O[C@H](C)[C@@H](C)OC(=O)c3ccc(OCCC[C@H]4CC[C@H](CCC)CC4)cc3)cc2)CC1", "melting point": 109}
{"smiles": "O=C(CCc1oc(-n2cnc3ccccc32)nc1-c1ccc(Cl)cc1)N1CCSC1", "melting point": "125 to 126"}
{"smiles": "CCCNc1nc(C#N)c(C#N)nc1SCc1ccccc1", "melting point": "153 to 156"}
{"smiles": "COCCSc1ccccc1S(N)(=O)=O", "melting point": "127 to 130"}
{"smiles": "N#Cc1cc(C(F)(F)F)[nH]c1-c1ccc(Br)o1", "melting point": "224 to 226"}
{"smiles": "O=C(O)CCc1cnoc1-c1cc(Cl)ccc1Cl", "melting point": "103 to 104"}
{"smiles": "Cn1c(C(F)(F)F)cc(=O)n(-c2cc(OCc3cccs3)c(Cl)cc2F)c1=O", "melting point": "156 to 158"}
{"smiles": "COCCOc1cc(N(C)S(=O)(=O)c2ccccn2)c2[nH]c(C3=NCC(CN4CCS(=O)CC4)S3)cc2c1", "note": "(stereo not drawn)", "melting point": "182 to 183"}
{"smiles": "COc1cc(OC)c2c(=O)[nH]c(-c3ccc(CN4CCN(C)CC4)cc3)nc2c1", "melting point": "275 to 277"}
{"smiles": "CON=Cc1ccc(N2C(=O)C(O)=C(C(=O)c3ccc(OC)cc3)C2c2ccccc2)cc1", "note": "(stereo not drawn)", "melting point": "226 to 229"}
{"smiles": "COC(=O)C(=C1SC=CS1)S(=O)(=O)C(C)C", "melting point": "141 to 142"}
{"smiles": "CC1(C)Oc2ccc(S(=O)(=O)c3ccccc3)cc2C2OC21", "note": "(stereo not drawn)", "melting point": "103 to 105"}
{"smiles": "COCCc1nc2c(N)nc3ccccc3c2n1CCCCC(=O)N1CCOCC1", "melting point": "128 to 129"}
{"smiles": "COc1ccc(S(=O)(=O)Nc2ccc(N(C)C)nc2Nc2ccccc2)cc1", "melting point": "152 to 153"}
{"smiles": "COc1c(C)cc2c(c1C)C[C@@H]1c3cc(C(C)C)ccc3N[C@H]21", "note": "(relative stereo)", "melting point": 106}
{"smiles": "O=C(O)C=Cc1cccc2cc[nH]c12", "melting point": "179 to 181"}
{"smiles": "CC(=O)Oc1c(C)cc(C(=O)c2ccc(C(=O)c3cc(C)c(OC(C)=O)c(C)c3)cc2)cc1C", "melting point": "255 to 256"}
{"smiles": "C=CCOc1cc2oc(=O)ccc2cc1C", "melting point": "124 to 125"}
{"smiles": "CC(C)Nc1n[nH]c2nc(Oc3ccc(F)cc3F)ncc12", "melting point": "211 to 214"}
{"smiles": "O=C1C(c2c[nH]c3ccccc23)C(c2c[nH]c3ccccc23)C(=O)N1c1ccccc1", "note": "(stereo not drawn)", "melting point": "260 to 263"}
{"smiles": "CCCc1c(OCCCCCCc2cccc(O)c2O)ccc(C(=O)O)c1O", "melting point": "147 to 150"}
{"smiles": "CS(=O)(=O)c1cccc(NC(=O)c2cnn3c(C(F)(F)F)cc(-c4ccc(C(F)(F)F)cc4)nc23)c1", "melting point": 259}
{"smiles": "CC(C)Nc1cccnc1N1CCN(C(=O)c2ccc(C(=O)N(CCO)c3ccccc3)cc2)CC1", "melting point": "71 to 72"}
{"smiles": "Cc1cc(CNC(=O)c2sc(-n3cnn(Cc4ccc(F)cc4)c3=O)nc2C)[nH]n1", "melting point": "234 to 235"}
{"smiles": "NC(=NCCc1ccccn1)Nc1ccc(Br)cn1", "melting point": "139 to 141"}
{"smiles": "CC1c2cccc3c2N(CC3)c2ccccc2N1C(=O)CCBr", "note": "(stereo not drawn)", "melting point": "149 to 151"}
{"smiles": "CCOc1ccccc1C(=O)NCCN1CCC(O)(c2ccc(Cl)cc2)CC1", "melting point": "171 to 173"}
{"smiles": "COc1ccccc1C(O)(c1ccc(C(C)C)cc1)C(C)C", "note": "(stereo not drawn)", "melting point": "85 to 86"}
{"smiles": "CCOC(=O)c1cnn2c1c(SC)nc1ccccc12", "melting point": "97 to 98"}
{"smiles": "COc1cc(-c2nc3ccc(OCCN4CCCC4)cc3n2Cc2ccccc2C(F)(F)F)cc(OC)c1OC", "melting point": 143}
{"smiles": "COC(=O)Nc1nc(-c2ccccc2)c(-c2nc3ccccc3c(=O)n2-c2ccc(C)cc2)s1", "melting point": "> 275"}
{"smiles": "Cc1cccc(-c2[nH]c(C(C)C)nc2-c2cccc(-c3ccc(NC(=O)NN4CCOCC4)cc3)c2)n1", "melting point": "146 to 148"}
{"smiles": "CCOC(=O)c1c(O)nc(SCC)n1C(C)C", "melting point": "82 to 84"}
{"smiles": "Oc1ccc(-c2n[nH]c3ncnc(Nc4cccc(Cl)c4)c23)cc1", "melting point": "> 220"}
{"smiles": "COc1cc(OC)cc(C(=CC#N)c2ccc(OC)c([N+](=O)[O-])c2)c1", "melting point": "122 to 124"}
{"smiles": "OC1CSC(Oc2cnc(-c3ccncc3)c(F)c2)C(O)C1O", "note": "(stereo not drawn)", "melting point": 192}
{"smiles": "CCCn1c(=O)c2c(NC)n[nH]c2n(Cc2ccc(Cl)cc2)c1=O", "melting point": "305 to 307"}
{"smiles": "CC12CC(F)C3C4CCC(=O)C=C4CCC3C1CCC2=O", "note": "(stereo not drawn)", "melting point": "173 to 174"}
{"smiles": "Cc1ccc(NCC2CCN(C3CCCCC3)CC2)c(C(=O)Nc2ccc(Cl)cn2)c1", "melting point": "179 to 182"}
{"smiles": "O=C(O)CCC#Cc1ccccc1Br", "melting point": "87 to 91"}
{"smiles": "O=C(O)c1nn(-c2ccc(Cl)cc2Cl)c(-c2ccc(Cl)cc2)c1CF", "melting point": "60 to 80"}
{"smiles": "Oc1cc(OCc2ccccc2)cc(OCc2ccccc2)c1C[C@H](O)[C@@H](O)c1ccccc1", "melting point": "121 to 123"}
{"smiles": "CC1(C)OC(=O)[C@H](CC(=O)O)O1", "melting point": "108 to 110"}
{"smiles": "COc1cccc(C2(C#N)CCN(C(=O)CN3CCN(c4cnccn4)CC3)CC2)c1", "melting point": 108}
